Reference: patent publication US4292309A, “Antibiotics C-14482 B1, B2 and B3” (Takeda Chemical Industries, Ltd., priority 1979, dated 1981)
Values after ≈ are worked out from the molar mass of the structure shown. Read-outs that look alike come from different tables or passages of the source.

Columns and labels:
Strain IFO 13887 = test: Susceptibility toward antibiotic (minimum inhibition concentration); assay type: cell-based, Nocardia sp. No. C-14482; conditions: Nocardia
Text: (§1) For example, a conventional mutagenesis effected with the strain IFO 13725 as the parent strain yields the strain IFO 13887, a variant capable of producing advantageously Antibiotic C-14482 B. This strain has the capability to produce C-14482 B in increased quantities as compared with the parent strain thereof, and is similar in taxonomical characteristics to the parent strain, except the physiological properties shown in Table 4.

Strain IFO 13725 = test: as above; assay type: cell-based, Nocardia sp. No. C-14482; conditions: Nocardia
Text: as §1

[1] = IFO13887, Strain IFO 13887, read-out: minimum inhibition concentration
[2] = IFO13725, Strain IFO 13725, read-out: minimum inhibition concentration

Compound	MIC (Strain IFO 13887; [1])	MIC (Strain IFO 13725; [2])	MIC (Strain IFO 13887; IFO13887, read-out: minimum inhibition concentration)	MIC (Strain IFO 13725; IFO13725, read-out: minimum inhibition concentration)
O=C(N[C@H](CO)[C@H](O)c1ccc([N+](=O)[O-])cc1)C(Cl)Cl [Chloramphenicol]	5 µg/mL (≈ 15.5 µM)	10 µg/mL (≈ 30.9 µM)		
CCC[C@@H]1C[C@@H](C(=O)N[C@@H]([C@H]2O[C@H](SC)[C@H](O)[C@@H](O)[C@H]2O)[C@@H](C)O)N(C)C1 [Lincomycin]	20 µg/mL (≈ 49.2 µM)	5 µg/mL (≈ 12.3 µM)		
CC1(C)S[C@@H]2[C@H](NC(=O)Cc3ccccc3)C(=O)N2[C@H]1C(=O)O [Penicillin G]	50 µg/mL (≈ 150 µM)	10 µg/mL (≈ 29.9 µM)		
CO[C@H]1/C=C/O[C@@]2(C)Oc3c(C)c(O)c4c(O)c(c(/C=N/N5CCN(C)CC5)c(O)c4c3C2=O)NC(=O)/C(C)=C\C=C\[C@H](C)[C@H](O)[C@@H](C)[C@@H](O)[C@@H](C)[C@H](OC(C)=O)[C@@H]1C [Rifampicin]	< 0.1 µg/mL	< 0.1 µg/mL		
[H]/N=C(/N)N[C@H]1[C@H](O)[C@@H](O)[C@H](O[C@@H]2O[C@@H](C)[C@](O)(C=O)[C@H]2O[C@@H]2O[C@@H](CO)[C@H](O)[C@@H](O)[C@@H]2NC)[C@@H](N/C(N)=N\[H])[C@@H]1O [Streptomycin]	5 µg/mL (≈ 8.6 µM)	1 µg/mL (≈ 1.72 µM)		
CN(C)C1C(=O)C(C(N)=O)=C(O)C2(O)C(=O)C3=C(O)c4c(O)cccc4C(C)(O)C3CC12 (stereo not drawn) [Tetracycline]			1 µg/mL (≈ 2.25 µM)	0.5 µg/mL (≈ 1.13 µM)
